According to US20100279329A1, “METHOD FOR THE STABILISATION OF PURIFIED P-GLYCOPROTEIN” (UNIVERSITY OF BRIGHTON, priority 2007, published 2010):
Entries after “also recorded” stand apart in the source; their conditions may differ.

Legend:
P-glycoprotein (P-gp) [1] = molecular target: T1, P-glycoprotein (P-gp) (Homo sapiens, UniProt P08183); assay: ATPase activity of P-gp proteoliposomes after freeze drying, rehydration and storage; assay type: biochemical; design: made in house; host or cells: Trichoplusia ni (High Five) insect cells, recombinant baculovirus; conditions: storage at 4° C. only
Protocol: All freeze drying was carried out using a CHRIST Alpha 2-4 (MartinChrist, Germany) with the condenser temperature set to −80° C. Initial experiments were performed with product in micro-centrifuge tubes. Later experiments were performed using 2 ml glass freeze drying vials and freeze drying injection stoppers in conjunction with a stoppering system. This permitted vials to be sealed under vacuum, thus avoiding moisture uptake from the atmosphere when the chamber pressure was raised to atmospheric. In all experiments the shelf was pre-cooled to −80° C. to avoid melting of products whilst the chamber was being evacuated to the required pressure.
In order for freeze drying to be considered successful P-gp must have at least retained ATPase activity on rehydration immediately after freeze drying. On completion of the freeze drying cycle the solid product cake was rehydrated with distilled water. The product vial was vortexed to ensure the dried product was completely dissolved and rehydrated. […]
P-gp proteoliposomes were freeze dried, sealed and stored at a range of temperatures (4° C., 20° C. and 37° C.) and ATPase activity was assessed at intervals up to 150 days. […]
Following rehydration of P-gp proteoliposomes the ATPase activity was measured as described earlier. Activity was assessed following storage at 4° C., 20° C. and 37° C. at intervals up to 30 days.

P-glycoprotein (P-gp) [2] = molecular target: T1, P-glycoprotein (P-gp); assay: ATPase activity, varying ATP concentration (Michaelis-Menten kinetics), colorimetric Pi release; assay type: biochemical; design: made in house; host or cells: Trichoplusia ni (High Five) insect cells, recombinant baculovirus; conditions: for Nicardipine stimulated Vmax / Effect of the disaccharide on nicardipine stimulated ATPase activity (Vmax): 30 μM nicardipine; for Nicardipine stimulated Vmax / Basal Vmax: glycerol purified P-gp, mean (SEM), n=4; for Basal Vmax / Effect of the disaccharide on basal ATPase activity: no drug; for Effect of the disaccharide on nicardipine stimulated ATPase activity (Vmax) / Effect of the disaccharide on basal ATPase activity: 10-300 mM disaccharide added to glycerol purified P-gp, two way ANOVA
Protocol: A colorimetric assay (Chifflet et al., 1988) was used to determine ATP hydrolysis via release of inorganic phosphate. P-gp activity was expressed as μmol Pi/min/mg protein.
A 0-20 nmol standard curve was set up using KH2PO4 as a source of Pi. Background Pi was measured using wells containing no protein or drug only ATP and ATPase buffer (50 mM Tris pH 7.4, 150 mM NH4Cl, 5 mM MgSO4, 0.02% (w/v) NaN3).
The plate was incubated for 20 minutes at 37° C. and the reaction quenched by rapid addition of 40 μl 12% (w/v) SDS to all wells. 100 μl of a 1:1 mixture of 6% (w/v) ascorbate in 1M HCl:1% (w/v) ammonium molybdate (prepared after the reaction had been quenched due to its sensitivity to light) was added to all wells and the plate was incubated for 5 minutes at room temperature. Finally, 100 μl 2% (w/v) sodium citrate/sodium metaarsentie/2% (v/v) acetic acid was added and the plate incubated at 37° C. for 15 minutes. The plate was then allowed to cool and the absorbance measured at a wavelength of 750 nm in a plate reader (SpectraMax 250, Molecular Devices/Multiskan Ascent). The amount of Pi released was calculated from the Pi standard curve and the ATPase activity of P-gp calculated.
The amount of protein (mg) in 20 μl was calculated from the protein concentration determined by BSA standard curve (see 1.2.8) allowing ATPase activity to be determined as μmol/min/mg protein. The Michaelis-Menten equation (Equation 1) was fitted to a graph of ATPase activity using non-linear least squares fit (GraphPad Prism 4.0).
Both varying ATP and varying drug assays were performed.

P-glycoprotein (P-gp) [3] = molecular target: T1, P-glycoprotein (P-gp); assay: ATPase activity, varying drug concentration at constant ATP concentration (dose response); conditions: 300 mM disaccharide vs none; glycerol purified P-gp; two way ANOVA
Description: The assay was set up, conducted and read in conditions identical to those described above. […] The equation for the general dose response curve is given below (Equation 2).
Equation 2: The general dose response curve equation, where • V=rate of hydrolysis expressed as μmol/min/mg Pi, • Vmax=maximum rate of hydrolysis, • Vmin=minimum rate of hydrolysis, • [D]=concentration of drug, and • EC50=concentration of drug required to produce half maximum rate of hydrolysis.
The highest concentration was similar to that found in the reaction volume of an ATPase assay when a 20% (w/v) buffer was used (10 mM-300 mM). […] Both varying ATP and varying drug assays were performed.

[4] = molecular target: T2, plasma membrane H+-ATPase (Kluyveromyces lactis, UniProt P49380); conditions: cited from earlier work
T2 sequence (P49380 1-899): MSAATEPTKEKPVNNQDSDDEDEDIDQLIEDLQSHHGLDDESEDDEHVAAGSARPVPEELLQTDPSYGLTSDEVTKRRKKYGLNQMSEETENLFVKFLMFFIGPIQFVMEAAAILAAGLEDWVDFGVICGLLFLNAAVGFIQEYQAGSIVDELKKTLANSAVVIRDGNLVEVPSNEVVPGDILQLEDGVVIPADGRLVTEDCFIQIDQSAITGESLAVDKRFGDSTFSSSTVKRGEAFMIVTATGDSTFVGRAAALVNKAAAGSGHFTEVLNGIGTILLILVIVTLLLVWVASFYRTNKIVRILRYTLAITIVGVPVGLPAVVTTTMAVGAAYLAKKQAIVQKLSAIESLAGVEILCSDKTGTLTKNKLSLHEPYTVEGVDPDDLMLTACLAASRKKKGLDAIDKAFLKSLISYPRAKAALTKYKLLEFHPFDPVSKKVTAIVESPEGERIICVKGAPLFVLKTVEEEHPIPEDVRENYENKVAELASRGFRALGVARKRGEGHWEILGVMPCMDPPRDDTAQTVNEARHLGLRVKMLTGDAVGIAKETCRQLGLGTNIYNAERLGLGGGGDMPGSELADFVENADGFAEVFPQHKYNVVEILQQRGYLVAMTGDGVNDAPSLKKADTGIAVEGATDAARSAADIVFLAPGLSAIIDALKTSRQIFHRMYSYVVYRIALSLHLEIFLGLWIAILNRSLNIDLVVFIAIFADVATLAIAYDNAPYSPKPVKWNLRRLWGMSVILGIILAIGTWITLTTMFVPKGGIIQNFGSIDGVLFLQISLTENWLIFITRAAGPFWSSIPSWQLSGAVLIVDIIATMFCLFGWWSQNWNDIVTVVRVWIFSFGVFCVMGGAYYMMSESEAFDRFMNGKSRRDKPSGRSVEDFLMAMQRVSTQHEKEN

T1 sequence (P08183 whole entry): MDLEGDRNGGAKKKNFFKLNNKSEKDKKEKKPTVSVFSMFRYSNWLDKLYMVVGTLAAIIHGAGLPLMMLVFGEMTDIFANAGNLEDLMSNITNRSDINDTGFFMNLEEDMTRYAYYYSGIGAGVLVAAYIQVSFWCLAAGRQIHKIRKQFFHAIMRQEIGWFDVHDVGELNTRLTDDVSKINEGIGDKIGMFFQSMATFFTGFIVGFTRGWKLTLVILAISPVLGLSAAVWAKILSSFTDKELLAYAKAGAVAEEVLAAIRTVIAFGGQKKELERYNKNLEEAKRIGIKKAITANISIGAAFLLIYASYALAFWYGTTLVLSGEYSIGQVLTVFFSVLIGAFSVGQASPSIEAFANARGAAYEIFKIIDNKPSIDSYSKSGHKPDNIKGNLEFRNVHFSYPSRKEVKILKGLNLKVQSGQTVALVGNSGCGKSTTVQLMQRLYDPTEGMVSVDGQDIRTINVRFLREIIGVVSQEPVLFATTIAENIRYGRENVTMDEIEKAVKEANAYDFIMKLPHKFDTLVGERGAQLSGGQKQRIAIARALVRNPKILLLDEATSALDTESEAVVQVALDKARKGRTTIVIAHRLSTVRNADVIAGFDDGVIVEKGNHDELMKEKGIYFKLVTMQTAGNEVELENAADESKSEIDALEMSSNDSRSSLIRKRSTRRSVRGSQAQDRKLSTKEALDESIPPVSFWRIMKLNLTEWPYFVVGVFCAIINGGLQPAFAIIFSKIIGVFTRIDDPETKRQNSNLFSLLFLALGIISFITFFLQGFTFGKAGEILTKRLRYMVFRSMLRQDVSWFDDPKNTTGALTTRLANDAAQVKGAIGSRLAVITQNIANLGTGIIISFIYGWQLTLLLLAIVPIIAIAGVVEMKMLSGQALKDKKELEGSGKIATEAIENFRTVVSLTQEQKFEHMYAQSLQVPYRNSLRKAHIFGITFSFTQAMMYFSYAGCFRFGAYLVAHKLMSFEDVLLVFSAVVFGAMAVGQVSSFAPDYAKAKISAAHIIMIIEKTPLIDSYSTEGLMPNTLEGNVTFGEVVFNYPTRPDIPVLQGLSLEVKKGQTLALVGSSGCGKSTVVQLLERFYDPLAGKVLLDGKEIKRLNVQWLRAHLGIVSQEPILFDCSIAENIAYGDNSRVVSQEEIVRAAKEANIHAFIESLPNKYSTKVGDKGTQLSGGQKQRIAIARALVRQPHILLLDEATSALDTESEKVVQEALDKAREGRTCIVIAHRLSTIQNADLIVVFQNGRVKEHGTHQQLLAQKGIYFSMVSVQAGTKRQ

## OC[C@H]1O[C@H](O[C@H]2[C@H](O)[C@@H](O)[C@@H](O)O[C@@H]2CO)[C@H](O)[C@@H](O)[C@@H]1O [Maltose, α-D-glucopyranosyl (1-4) α-D-glucopyranose]
P-glycoprotein (P-gp) [1]
  Time for which P-gp ATPase activity is preserved after freeze drying: ≤ 12 days
P-glycoprotein (P-gp) [2]; 10 mM maltose
  Nicardipine stimulated Vmax: 1.7 (1.1) μmol/min/mg
  Basal Vmax: 0.1 (0.4) μmol/min/mg
P-glycoprotein (P-gp) [2]; 30 mM maltose
  Nicardipine stimulated Vmax: 1.1 (0.6) μmol/min/mg
  Basal Vmax: 0.1 (0.1) μmol/min/mg
P-glycoprotein (P-gp) [2]; 100 mM maltose
  Nicardipine stimulated Vmax: 1.0 (0.3) μmol/min/mg
  Basal Vmax: 0.1 (0.6) μmol/min/mg
P-glycoprotein (P-gp) [2]; 300 mM maltose
  Nicardipine stimulated Vmax: 0.9 (0.4) μmol/min/mg
  Basal Vmax: 0.1 (0.2) μmol/min/mg
P-glycoprotein (P-gp) [2]
  Effect of the disaccharide on nicardipine stimulated ATPase activity (Vmax): no significant affect; also recorded: did not alter; also recorded: does not effect; also recorded: no significant difference
  Effect of the disaccharide on basal ATPase activity: remained unchanged; also recorded: no significant difference

## OC[C@H]1O[C@H](O[C@H]2O[C@H](CO)[C@@H](O)[C@H](O)[C@H]2O)[C@H](O)[C@@H](O)[C@@H]1O [Trehalose, α-D-glucopyranosyl (1-1) α-D-glucopyranose]
P-glycoprotein (P-gp) [3]
  Effect of the disaccharide on potency of nicardipine to stimulate ATPase activity: did not affect; also recorded: unaffected; also recorded: no significant difference
[4]; 0.6 M to 0.8M trehalose, 20° C.
  Effect on ATPase activity of plasma membrane H+-ATPase: inhibit
[4]; high trehalose concentrations, 40° C.
  Reduction in Vmax of plasma membrane H+-ATPase: negligible
P-glycoprotein (P-gp) [2]; 10 mM trehalose
  Nicardipine stimulated Vmax: 4.7 (1.6) μmol/min/mg
  Basal Vmax: 0.86 (0.67) μmol/min/mg
P-glycoprotein (P-gp) [2]; 30 mM trehalose
  Nicardipine stimulated Vmax: 5.6 (2.3) μmol/min/mg
  Basal Vmax: 0.63 (0.4) μmol/min/mg
P-glycoprotein (P-gp) [2]; 100 mM trehalose
  Nicardipine stimulated Vmax: 4.9 (2.1) μmol/min/mg
  Basal Vmax: 1.0 (0.86) μmol/min/mg
P-glycoprotein (P-gp) [2]; 300 mM trehalose
  Nicardipine stimulated Vmax: 3.7 (1.3) μmol/min/mg
  Basal Vmax: 0.7 (0.54) μmol/min/mg
P-glycoprotein (P-gp) [2]
  Effect of the disaccharide on nicardipine stimulated ATPase activity (Vmax): did not affect; also recorded: does not affect; also recorded: no significant difference
  Effect of the disaccharide on basal ATPase activity: does not affect; also recorded: no significant difference
